Tested on: acid secretion stimulated by pentagastrin of the perfused rat stomach
Assay: Secretion-inhibiting action on the perfused rat stomach (pentagastrin-stimulated acid secretion in vivo)
Details: anesthetized female CD rats, pentagastrin 1 μg/kg i.v. stimulation, dose 1 μmol/kg i.d.
Description: Testing of the Secretion-Inhibiting Action on the Perfused Rat Stomach
In Table A below, the influence of the compounds according to the invention after […] administration is shown on the acid secretion stimulated by pentagastrin of the perfused rat stomach in vivo.
The abdomen of anesthetized rats (CD rats, female, 200-250 g; 1.5 g/kg i.m. urethane) was opened after tracheotomy by means of a median upper abdominal incision and a PVC catheter was fixed transorally in the esophagus and a further catheter via the pylonus such that the ends of the tubing just projected into the gastric lumen. The catheter leading from the pylorus led outwards through a side opening in the right abdominal wall.
After thorough rinsing (about 50-100 ml), warm physiological NaCl solution at 37° C. was continuously passed through the stomach (0.5 ml/min, pH 6.8-6.9; Braun-Unita I). The pH (pH meter 632, glass electrode EA 147; φ=5 mm, Metrohm), and, by titration with a freshly prepared 0.01N NaOH solution to pH 7 (Dosimat 665 Metrohm), the secreted HCl were determined in the effluent in each case collected at an interval of 15 minutes.
The gastric secretion was stimulated by continuous perfusion of 1 μg/kg (=1.65 ml/h) of i.v. pentagastrin (left femoral vein) about 30 min after the end of the operation (i.e. after determination of 2 preliminary fractions). The substances to be tested were administered Intraduodenally in 2,5 ml/kg of liquid volume 60 min after the start of the pentagastrin continuous infusion.
The body temperature of the animals was kept at a constant 37.8-38° C. by infrared irradiation and heat pads (automatic, stepless control by means of rectal temperature sensors).

Structure (SMILES) | Inhibition of acid secretion
COCCO[C@@H]1c2ccn3c(C)c(C)nc3c2N[C@H](c2ccccc2)[C@H]1OC(=O)CCCCO[N+](=O)[O-] [Example 1] | 100%
COCCO[C@@H]1c2ccn3c(C)c(C)nc3c2N[C@H](c2ccccc2)[C@H]1OC(=O)CCCO[N+](=O)[O-] [Example 2] | 100%
COCCO[C@@H]1c2ccn3c(C)c(C)nc3c2O[C@H](c2ccccc2)[C@@H]1OC(=O)CCCCO[N+](=O)[O-] [Example 3, (7R,8R,9R)-2,3-Dimethyl-7-(2-methoxyethoxy)-9-phenyl-8-(5-nitro-oxy-valeryloxy)-7H-8,9-dihydro-pyrano[2,3-c]imdazo[1,2-a]pyridine] | 100%
CCC(CCCOC(=O)O[C@@H]1[C@@H](c2ccccc2)Nc2c(ccn3c(C)c(C)nc23)[C@H]1OCCOC)O[N+](=O)[O-] (stereo partly shown) [Example 4] | 100%

Reference: patent publication US20060035892A1, “Nitrosated imidazopyridines” (Atlanta Pharma AG, priority 2002, published 2006)
